Experimental findings from US12102685B2, “Immodulator peptides covalently modified with small molecules” (priority 2020, dated 2024) are described below.

Marks after values point to notes of the source that are not given here. Peptide text beside a SMILES is read from it.

Experiment [1] is described as follows: Alexa488-SA-labelled IM1-IM6 binding to metal-charged NTA-coated plate (x2B d). The following applies: no peptide background = 1.0. The method, then: NTA-metal-affinity fluorescence assay was performed using 96-well NTA-metal-coated plates readily available from commercial sources such as Qiagen (Germantown, MD). NTA was charged with ferrous or ferric iron, zinc, copper, calcium, vanadium, ruthenium, cobalt, titanium, manganese or other metals. 400 ng of FITC-labeled immodulator peptide (or biotinylated immodulator peptide complexed to Alexa-488-labeled streptavidin) in PBS buffer was added per plate. After incubation at room temperature for 60 minutes, excess peptide was washed off and peptide was detected by measuring fluorescence (excitation 490 nm, emmission 525 nm) in a fluorometer. • (a) Using FITC-labeled IM3 peptide (1 ug/well) in the fluorescent binding assay: • EDTA-treated control: 2,251±1,186 • Ferrous iron: 170,441±11,264 (p<0.001)* • Copper: 13,644±5566 (p<0.05)* • Calcium: 48,822±11,990 (p<0.01)* • *p values are relative to EDTA-treated control • (b) Competition binding assay to ferrous iron, calcium, copper and zinc-charged NTA-coated plates using FITC-labeled IM3 peptide (0.5 uM) and 8× (4 uM) unlabelled competitor peptides IM3N1, IM3N2 (*all comparisons to PBS control are p<0.01); # fluorescent value of binding to […] was set at 100.
Ferrous iron # (100±2.6*); Control (no metal): 6.4±3.1; Ferric iron: 94.1±6.6*; Calcium: 47.6±3.7*; Vanadium: 53.9±5.5*; Manganese: 54.4±11.2*; Cobalt: 25.4±2.3*; Copper: 58.4±6.4*; Zinc: 71.4±8.3*; Ruthenium: 67.8±8.3*; (d) Alexa488-SA-labelled immodulator peptide IM1, IM2, IM3, IM4, IM5, IM6 (400 ng/well) were bound to NTA-coated plate charged with the indicated metals: # background (no peptide) control set to 1.0;*p<0.05, **p<0.01 vs “no peptide”

A short description of experiment [2]: Binding to heparin-agarose spin column (x3D). The conditions noted are these: 1 ug SA488-labelled peptide. As to the method:
1 ug Streptavidin-Alexa 488 conjugate (SA488)-labelled IM peptide in PBS buffer was loaded on a spin column packed with 0.2 ml bed volume heparin-agarose (G-Biosciences, St. Louis, MO). The column was centrifuged for 2 min at 2,000 G and the flow-through was collected. The column was then washed with 0.3 ml 1% BSA in PBS buffer and the column spin repeated. Flowthrough and wash were pooled and duplicate 20 uL aliquots counted in a standard fluorometer (excitation/emission 485/525 nm). Results are expressed as percentage of input counts that bound the heparin-agarose column, versus flowthrough. Percent counts bound to heparin-agarose resin are shown below. IM3, IM5 and IM6 peptides bind heparin-agarose in this assay.

Experiment [3] deals with COL1 in HFF-1 dermal fibroblasts. Nature of the experiment: Collagen-1 ELISA in HFF-1 dermal fibroblasts (x11A). Type of experiment: cell-based. The following applies: peptide 2 uM, 72 hour; control (buffer) = 100. The method, then:
Immune modulation functions of immodulator peptides have potential untility in the field of cosmetics. HFF-1 cell line was obtained from American Type Culture Collection (ATCC). Cells were grown in a T-75 flask in DMEM Medium containing 10% fetal bovine serum and penicillin-streptomycin at 37° C. in a humidified, 5% CO2 incubator. Cells ([…], 2,000 cells/well) were plated in a 96-well plate and incubated overnight at 37° C. in a humidified, 5% CO2 incubator. Next day, […] of compounds were added (quadruplicate wells). After 72 hour incubation with the compound, supernatants were collected for Collagen-1 ELISA assay and cell viability was measured in a luminometer after the addition of […] CellTiterGlo reagent (Promega Inc, Madison, WI) as recommended by the manufacturer.
Collagen stimulating activity of immodulator peptides in HFF-1 dermal fibroblasts. Peptides were added to cells at 2 uM. COL1 immunoreactivity was measured in the supernatants of cultured cells by ELISA using a rabbit monoclonal anti-COL1 primary antibody (Abcam, Cambridge, MA). Control (buffer) value of immunoreactivity was set to 100.

The nature of experiment [4]: Iron-binding competition assay with labeled IM3AVD (x2E d). The conditions noted are these: labeled IM3AVD plus 10x unlabeled peptide; no competing peptide = 100. The method, then:
Experiments were conducted by the procedure described above. Ferric iron-charged NTA-coated 96-well plates were used as described. 1 ug/well immodulator peptide complexed to Alexa-488-labeled streptavidin in PBS buffer was added (60 min at room temperature). The plate was washed and counted in a standard fluorometer (excitation/emission: 485/525 nm). The results (fluorescence) show improved iron-binding by the three peptides extended C-terminally by the AVD, (dA)VD, and FVS tripeptides. **p<0.01 vs IM3 control IM3: 200±29; IM4: 45±37**; IM5: 130±77; IM3AVD: 434±29**; IM3dAVD: 418±28**; IM3FVS: 371±33** • (c) Competition assay. The same procedure was used as the preceding experiment, except that 375 ng/well labeled IM3 peptide was used, plus 10× of the indicated unlabeled peptide. ‘No competing peptide’ control value was set to 100. *p<0.05 vs “no peptide” control Competing Peptide/Fluorescence • None: 100±38; IM4: 125±26; IM3: 63±27*; IM5: 40±14*; IM3AVD: 10±28* • (d) Competition assay. The same procedure was used as the preceding experiment, except that labeled IM3AVD peptide was used. **p<0.01 vs “no competing peptide” control • None: 100±9; IM4: 144±44; IM3: 35±16**; IM5: 30±19**; IM3AVD: 9±19** • (e) The same procedure was used as the preceding experiment, except that each peptide was labeled with Alexa-488-labeled streptavidin in PBS buffer and used separately. Binding to IM3 was set to =100. *p<0.05, **p<0.01 vs IM3 control. (Labeled Peptide/Fluorescence) IM1: 1.8±0.4**; IM2: 3.0±1.8**; IM3: 100.0±16.8; IM4: 7.2±1.7*; IM5: 86.7±6.4; IM6: 85.9±14.9; IM3AVD:137.7±11.8*; IM3dAVD:147.4±22.9*; IM3FVS: 101.5±10.5.

For `CSCC[C@H](NC(=O)[C@H](CO)NC(=O)[C@@H](NC(=O)[C@H](CCC(=O)O)NC(=O)[C@H](CS)NC(=O)[C@H](CCC(N)=O)NC(=O)[C@H](CCCNC(=N)N)NC(=O)[C@H](CO)NC(=O)[C@H](Cc1c[nH]cn1)NC(=O)[C@H](Cc1ccc(O)cc1)NC(=O)[C@H](Cc1ccccc1)NC(=O)CNC(=O)[C@H](CC(N)=O)NC(=O)[C@@H](N)CCCCN)[C@@H](C)O)C(=O)N[C@@H](CC(=O)O)C(=O)NCC(=O)N[C@@H](CCC(=O)O)C(=O)N[C@@H](C)C(=O)NCC(=O)N[C@@H](CC(C)C)C(=O)N[C@@H](CS)C(=O)N[C@@H](Cc1c[nH]c2ccccc12)C(=O)O` [IM1] (H-KNGFYHSRQCETSMDGEAGLCW-OH; N-terminus and C-terminus assumed), the fluorescence in experiment [1] (Calcium) is on record as 1.1 ± 0.1; in experiment [1] (Copper), 3.0 ± 0.1**; in experiment [1] (Ferrous iron, 400 ng/well), 1.2 ± 0.3; in experiment [1] (Zinc), 1.1 ± 0.2. Moreover, the “Percent Flowthrough” value in experiment [2] came out at 100.0%. Also, in experiment [2], the Percent retained amounted to 0%. Further, the “COL1 immunoreactivity in supernatant” value in experiment [3] came to 98.
For `CC[C@H](C)[C@H](NC(=O)CNC(=O)[C@H](CCCNC(=N)N)NC(=O)[C@H](CCCCN)NC(=O)[C@H](CCCNC(=N)N)NC(=O)CNC(=O)[C@H](CCCNC(=N)N)NC(=O)[C@H](CO)NC(=O)[C@@H]1CCCN1C(=O)[C@H](CCCCN)NC(=O)[C@H](CS)NC(=O)[C@H](CCC(N)=O)NC(=O)[C@H](CCCCN)NC(=O)[C@H](CCCNC(=N)N)NC(=O)[C@H](CCCCN)NC(=O)[C@H](Cc1ccc(O)cc1)NC(=O)[C@H](Cc1ccccc1)NC(=O)CNC(=O)[C@H](CCCCN)NC(=O)[C@@H](N)CCCNC(=N)N)C(=O)N[C@@H](CS)C(=O)N[C@@H](Cc1c[nH]c2ccccc12)C(=O)O` [IM5] (H-RKGFYKRKQCKPSRGRKRGICW-OH; N-terminus and C-terminus assumed), the “fluorescence of labeled IM3AVD with competing peptide” value (from here on “fluorescence of labeled IM3AVD”) in experiment [4] was found to be 30±19. The fluorescence in experiment [1] (Calcium) was 23.4 ± 0.8**; in experiment [1] (Copper) it was 5.6 ± 0.1**; in experiment [1] (Ferrous iron, 400 ng/well), 20.5 ± 1.5**; in experiment [1] (Zinc) it was 23.6 ± 0.1**. For the same compound, in experiment [2], the “Percent Flowthrough” value is on record as 3.6%. Besides, the Percent retained in experiment [2] amounted to 96.4%. In experiment [3], the “COL1 immunoreactivity in supernatant” value is 93.
Regarding `CC(C)C[C@H](NC(=O)[C@H](C)NC(=O)[C@@H]1CCCN1C(=O)[C@H](Cc1c[nH]cn1)NC(=O)[C@H](CS)NC(=O)[C@H](CCC(N)=O)NC(=O)[C@H](CCCCN)NC(=O)[C@@H]1CCCN1C(=O)[C@H](Cc1c[nH]cn1)NC(=O)[C@H](Cc1ccccc1)NC(=O)[C@H](CC(N)=O)NC(=O)CNC(=O)[C@H](CC(N)=O)NC(=O)[C@@H](N)CCCNC(=N)N)C(=O)N[C@@H](CC(=O)O)C(=O)NCC(=O)N[C@@H](CCC(N)=O)C(=O)N[C@@H](CCCNC(=N)N)C(=O)NCC(=O)N[C@@H](CCCCN)C(=O)N[C@@H](CS)C(=O)N[C@@H](Cc1c[nH]c2ccccc12)C(=O)O` [IM4] (H-RNGNFHPKQCHPALDGQRGKCW-OH; N-terminus and C-terminus assumed), the “fluorescence of labeled IM3AVD” value in experiment [4] turned out to be 144±44. In addition, the fluorescence in experiment [1] (Calcium) is 1.0 ± 0.1; in experiment [1] (Copper), 5.7 ± 0.1**; in experiment [1] (Ferrous iron, 400 ng/well) it was 2.8 ± 1.4; in experiment [1] (Zinc) it was 1.2 ± 0.2. In addition, in experiment [2], the “Percent Flowthrough” value came out at 100.0%. The compound also had a Percent retained in experiment [2] of 0%. The “COL1 immunoreactivity in supernatant” value in experiment [3] was 105.
`CSCC[C@H](NC(=O)[C@H](CCCCN)NC(=O)[C@H](CS)NC(=O)[C@H](CCC(N)=O)NC(=O)[C@H](CCCCN)NC(=O)[C@H](CC(C)C)NC(=O)[C@H](CC(N)=O)NC(=O)[C@H](Cc1ccc(O)cc1)NC(=O)[C@H](CC(C)C)NC(=O)CNC(=O)[C@H](Cc1c[nH]cn1)NC(=O)[C@@H](N)CCCCN)C(=O)N[C@@H](CO)C(=O)N[C@@H](CC(C)C)C(=O)N[C@@H](CC(N)=O)C(=O)NCC(=O)N[C@@H](CCC(N)=O)C(=O)N[C@@H](CCCNC(=N)N)C(=O)NCC(=O)N[C@@H](CCC(=O)O)C(=O)N[C@@H](CS)C(=O)N[C@@H](Cc1c[nH]c2ccccc12)C(=O)O` [IM2]: the fluorescence in experiment [1] (Calcium) was 1.7 ± 0.2*; in experiment [1] (Copper) it was 3.6 ± 0.1**; in experiment [1] (Ferrous iron, 400 ng/well), 1.4 ± 0.3; in experiment [1] (Zinc), 1.1 ± 0.1. For the same compound, the “Percent Flowthrough” value in experiment [2] is recorded as 100.0%. The compound further returned a Percent retained in experiment [2] of 0%. In addition, the “COL1 immunoreactivity in supernatant” value in experiment [3] was found to be 109.
As to `N=C(N)NCCC[C@H](NC(=O)CNC(=O)[C@H](CCCCN)NC(=O)[C@H](CO)NC(=O)[C@@H]1CCCN1C(=O)[C@H](CCCNC(=N)N)NC(=O)[C@H](CS)NC(=O)[C@H](CCC(N)=O)NC(=O)[C@H](CCCCN)NC(=O)[C@H](CCCCN)NC(=O)[C@H](CCCCN)NC(=O)[C@H](Cc1ccc(O)cc1)NC(=O)[C@H](Cc1ccccc1)NC(=O)CNC(=O)[C@H](CCCCN)NC(=O)[C@@H](N)CCCCN)C(=O)N[C@@H](CCCCN)C(=O)N[C@@H](CCCNC(=N)N)C(=O)NCC(=O)N[C@@H](Cc1ccccc1)C(=O)N[C@@H](CS)C(=O)N[C@@H](Cc1c[nH]c2ccccc12)C(=O)O` [IM3] (H-KKGFYKKKQCRPSKGRKRGFCW-OH; N-terminus and C-terminus assumed), the “fluorescence of labeled IM3AVD” value in experiment [4] was determined as 35±16. Further, the fluorescence in experiment [1] (Calcium) is given as 28.7 ± 0.7**; in experiment [1] (Copper), 6.2 ± 0.2**; in experiment [1] (Ferrous iron, 400 ng/well), 24.7 ± 1.6**; in experiment [1] (Zinc), 32.0 ± 0.7**. In addition, in experiment [2], the “Percent Flowthrough” value came to 2.3%. The Percent retained in experiment [2] is 97.7%. Also, in experiment [3], the “COL1 immunoreactivity in supernatant” value came to 101.
